pKi: −log10 of the molar value.
Key:
plasma [1] = experiment: Partial Thromboplastin Time Test (PT, tissue thromboplastin reagent); assay type: biochemical; settings: Manchester (tissue thromboplasin) reagent, 37°
Description: Partial Thromboplastin Time Test Protocol
(§1) Venous blood was collected into 3.2% (0.109 m) trisodium citrate vacutainer tubes at 1 volume of anticoagulant to nine volumes of blood.
(§2) The blood cells were separated by centrifugation at 700 g for ten minutes to yield plasma, which was frozen at […] until required.
(§3) To perform the test, 100 μl of plasma was pipetted into in a glass test tube, 1 μl of test compound in DMSO was added, and allowed to warm to 37° over two minutes.
100 μl of warm (37°) Manchester (tissue thromboplasin) reagent (Helena Biosciences, UK) was added, allowed to equilibrate for sixty seconds. 100 μl of warm (37°) 25 mM calcium chloride solution was added to initiate clotting.
The test tube was tilted three times through a 90° angle every five seconds to mix the reagents and the time to clot formation recorded.
(§4) Data from a series of observations and test compound concentrations are analysed by a SAS statistical analysis program and a CT2 (Concentration required to double clotting time) for each compound is generated.

human factor Xa = human factor Xa (Homo sapiens, UniProt P00742); experiment: Enzyme inhibition assay, factor Xa (chromogenic substrate pefachrome-FXA); settings: for FXa pKi: room temperature, 0.1M phosphate buffer, pH7.4
human factor Xa, sequence (P00742 235-488 limits assumed): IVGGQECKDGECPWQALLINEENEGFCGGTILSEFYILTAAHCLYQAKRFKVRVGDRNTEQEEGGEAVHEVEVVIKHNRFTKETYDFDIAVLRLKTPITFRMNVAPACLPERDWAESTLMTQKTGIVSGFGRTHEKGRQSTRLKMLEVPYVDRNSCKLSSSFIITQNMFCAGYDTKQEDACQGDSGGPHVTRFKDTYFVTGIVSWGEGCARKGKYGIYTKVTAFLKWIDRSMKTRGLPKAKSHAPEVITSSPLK
human factor Xa, sequence (P00742 41-179 partner limits assumed): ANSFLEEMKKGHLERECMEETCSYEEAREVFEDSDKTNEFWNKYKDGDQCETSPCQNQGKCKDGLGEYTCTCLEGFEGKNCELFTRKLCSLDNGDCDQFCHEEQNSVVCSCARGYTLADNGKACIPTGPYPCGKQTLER

plasma [2] = experiment: Kaolin Activated Partial Thromboplastin Time Test (APTT); assay type: biochemical; settings: 37°
Description: Kaolin Activated Partial Thromboplastin Time Test Protocol
as §1, §2, §3
100 μl of APTT reagent resuspended in Owren's buffer (Thrombosis Reference Centre University of Manchester, withington Hospital, Manchester) was added, mixed thoroughly, and 100 μl of prewarmed kaolin suspension in Owren's buffer added.
This mixture was incubated for ten minutes at 37°, with regular gentle mixing by tilting through a 90° angle, three times sequentially at one minute intervals to maintain the kaolin in suspension.
After ten minutes 100 μl of 25 mM calcium chloride solution was added, the suspension redispersed by mixing as above and the time to clot formation recorded.
as §4

trypsin = trypsin (Homo sapiens, UniProt P07477); experiment: Enzyme inhibition assay, trypsin (chromogenic substrate pefachrome-TRY); settings: for trypsin pKi: room temperature, 0.1M phosphate buffer, pH7.4
thrombin = thrombin (Homo sapiens, UniProt P00734); experiment: Enzyme inhibition assay, thrombin (chromogenic substrate pefachrome-TH); settings: for thrombin pKi: room temperature, 0.1M phosphate buffer, pH7.4

Molecule | pKi (human factor Xa) | pKi (trypsin) | pKi (thrombin) | PT CT2 (Concentration required to double clotting time) (plasma [1]) | FXa pKi (human factor Xa) | APTT CT2 (Concentration required to double clotting time) (plasma [2]) | trypsin pKi (trypsin) | thrombin pKi (thrombin)
3-Amidino-benzoyl-D-phenylglycinyl-D-2-naphthylalanine amide [Example 36] |  |  |  | 9 µM | 7.12 | 9.4 µM | 6.16 | 6.24
3-Amidino-benzoyl-D-phenylglycinyl-D-2-naphthylalaninyl N-methylglycine [Example 32] |  |  |  | 5.6 µM | 7.39 | 7.4 µM | 5.65 | 6.09
3-Amidino-benzoyl-D-phenylglycinyl-D-2-naphthylalaninyl-D-proline [Example 33] |  |  |  | 7.1 µM | 7.50 |  | 6.39 | 6.14
3-Amidino-benzoyl-D-phenylglycinyl-D-2-naphthylalaninyl-glycine [Example 31] |  |  |  | 3.2 µM | 6.80 | 3.7 µM | 5.56 | 6.98
3-Amidino-benzoyl-D-phenylglycinyl-D-phenylalanine-N-pyrrolidinamide [Example 66] |  |  |  | 4.6 µM | 6.94 | 4.5 µM | 6.55 | 6.66
N=C(N)c1ccc(N)c(C(=O)N[C@@H](C(=O)NCC2CCC(CN)CC2)c2ccccc2)c1 (mixture of isomers) [Example 89, 2-Amino-5-amidinobenzoyl-D-phenylglycine-4-amlnomethylcyclohexyl methylamide] | 7.85 | 6.61 | 5.99 |  |  |  |  | 
CC(=N)N1CCC(CCOC(=O)[C@H](NC(=O)c2cccc(C(=N)N)c2)c2ccccc2)CC1 [Example 84, 3-Amidino-benzoyl-D-phenylglycine-2-(N-acetimino-4-piperidinyl) ethyl ester] | 7.98 | 5.61 | 5.04 | 1.9 µM |  | 5.8 µM |  | 
N=C(N)c1cccc(C(=O)N[C@@H](C(=O)OCCC2CCN(C(=N)N)CC2)c2ccccc2)c1 [Example 87, 3-Amidino-benzoyl-D-phenylglycine-2-(N-amidino-4-piperidinyl) ethyl ester] | 7.62 | 5.89 |  | 4.2 µM |  | 14 µM |  | 5.10

More lines, main results first:

pKi (human factor Xa) | pKi (trypsin) | pKi (thrombin) | Molecule | PT CT2 (Concentration required to double clotting time) (plasma [1]) | FXa pKi (human factor Xa) | APTT CT2 (Concentration required to double clotting time) (plasma [2]) | trypsin pKi (trypsin) | thrombin pKi (thrombin)
6.39 | 6.10 | 5.27 | N=C(N)c1cccc(C(=O)NC(C(=O)NCC2CCC(CN)CC2)c2ccc3ccccc3c2)c1 (racemic) [Example 12, 3-Amidino-benzoyl-DL-2-naphthylglycine 4-aminomethylcyclohexyl methylamide] | 3.4 µM |  | 6.5 µM |  | 
6.79 | 5.84 | 4.77 | CC(C)[C@@H](NC(=O)[C@H](NC(=O)c1cccc(C(=N)N)c1)c1ccccc1)C(N)=O [Example 37, 3-Amidino-benzoyl-D-phenylglycinyl-D-valine amide] | 15 µM |  | 36 µM |  | 
 | 6.54 | 5.96 | N=C(N)c1cccc(C(=O)N[C@@H](C(=O)N2CCC(C(=O)c3ccccc3)CC2)c2ccccc2)c1 [Example 63, 3-Amidino-benzoyl-D-phenylglycine-4-benzoyl piperidinamide] | 3.7 µM |  |  |  | 
7.06 | 5.91 |  | Cc1ccc(CNC(=O)[C@H](NC(=O)c2cccc(C(=N)N)c2)c2ccccc2)cc1 [Example 64, 3-Amidino-benzoyl-D-phenylglycine-4-methylbenzylamide] | 8.3 µM |  | 7.6 µM |  | 5.72
7.19 | 5.79 | 5.93 | N=C(N)c1cccc(C(=O)N[C@@H](C(=O)NCc2cccc3ccccc23)c2ccccc2)c1 [Example 65, 3-Amidino-benzoyl-D-phenylglycine-1-naphthylmethylamide] |  |  |  |  | 
7.01 | 5.59 | 5.32 | N=C(N)c1cccc(C(=O)N[C@@H](C(=O)NC2C3CC4CC(C3)CC2C4)c2ccccc2)c1 (stereo partly drawn) [Example 68, 3-Amidino-benzoyl-D-phenylglycine-2adamantylamide] | 17 µM |  |  |  | 
6.57 | 5.73 | 5.16 | C[C@@H](NC(=O)[C@H](NC(=O)c1cccc(C(=N)N)c1)c1ccccc1)c1cccc2ccccc12 [Example 80, 3-Amidino-benzoyl-D-phenylglycine-R-1-(1-naphthyl)ethylamide] |  |  |  |  | 

Source: patent publication US7928137B2, “Meta-benzamidine derivatives as serine protease inhibitors” (Tularik Limited, priority 1997, dated 2011)
